Key:
Assay type in all cases: functional
Aphis medicaginis [1] = test: Insecticidal activity against Aphis medicaginis assessed as insect mortality at 100 mg/L measured after 72 hr post compound treatment
Aphis medicaginis [2] = test: Insecticidal activity against Aphis medicaginis assessed as insect mortality at 500 mg/L measured after 72 hr post compound treatment
Aphis medicaginis [3] = test: Insecticidal activity against Aphis medicaginis assessed as insect mortality at 10 mg/L measured after 72 hr post compound treatment

Row | SMILES | mortality at 100 µg/mL (Aphis medicaginis [1]) [%] | mortality at 500 µg/mL (Aphis medicaginis [2]) [%] | mortality at 10 µg/mL (Aphis medicaginis [3]) [%]
1 | CCOC(=O)[C@H](CCSC)N1CN/C(=N\[N+](=O)[O-])N(Cc2ccc(Cl)nc2)C1 | ≥ 60 | ≥ 70 | 
2 | CCOC(=O)[C@H](CC(C)C)N1CN/C(=N\[N+](=O)[O-])N(Cc2ccc(Cl)nc2)C1 | ≥ 80 | 100 | ≥ 70
3 | CCOC(=O)C[C@@H](C(=O)OCC)N1CN/C(=N\[N+](=O)[O-])N(Cc2cnc(Cl)s2)C1 | ≥ 80 | ≥ 90 | ≥ 70
4 | CCOC(=O)[C@H](C)N1CN/C(=N\[N+](=O)[O-])N(Cc2ccc(Cl)nc2)C1 | ≥ 60 | ≥ 70 | ≥ 50
5 | CCOC(=O)CCCN1CN/C(=N\[N+](=O)[O-])N(Cc2ccc(Cl)nc2)C1 | 100 | 100 | ≥ 80
6 | CN1COCN(Cc2cnc(Cl)s2)/C1=N\[N+](=O)[O-] [THIAMETHOXAM] | 100 | 100 | 100
7 | CCOC(=O)[C@H](C(C)C)N1CN/C(=N\[N+](=O)[O-])N(Cc2ccc(Cl)nc2)C1 | ≥ 70 | ≥ 80 | ≥ 60
8 | CCOC(=O)[C@H](Cc1ccccc1)N1CN/C(=N\[N+](=O)[O-])N(Cc2ccc(Cl)nc2)C1 | ≥ 60 | ≥ 70 | ≥ 50
9 | CCOC(=O)CN1CN/C(=N\[N+](=O)[O-])N(Cc2cnc(Cl)s2)C1 | ≥ 70 | ≥ 80 | ≥ 60
10 | CCOC(=O)[C@H](C)N1CN/C(=N\[N+](=O)[O-])N(Cc2cnc(Cl)s2)C1 | ≥ 60 | ≥ 80 | ≥ 60
11 | CCOC(=O)CC(CC(=O)OCC)N1CN/C(=N\[N+](=O)[O-])N(Cc2ccc(Cl)nc2)C1 | ≥ 70 | 100 | ≥ 60
12 | CCOC(=O)[C@H]([C@@H](C)CC)N1CN/C(=N\[N+](=O)[O-])N(Cc2ccc(Cl)nc2)C1 | ≥ 80 | ≥ 80 | ≥ 60
13 | CCOC(=O)[C@H](CCSC)N1CN/C(=N\[N+](=O)[O-])N(Cc2cnc(Cl)s2)C1 | ≥ 60 | ≥ 90 | ≥ 50
14 | CCOC(=O)C[C@@H](C(=O)OCC)N1CN/C(=N\[N+](=O)[O-])N(Cc2ccc(Cl)nc2)C1 | ≥ 70 | ≥ 90 | ≥ 60
15 | CCOC(=O)[C@H](Cc1ccccc1)N1CN/C(=N\[N+](=O)[O-])N(Cc2cnc(Cl)s2)C1 | ≥ 60 | ≥ 70 | 
16 | CCOC(=O)CCN1CN/C(=N\[N+](=O)[O-])N(Cc2cnc(Cl)s2)C1 | ≥ 70 | 100 | ≥ 60
17 | CCOC(=O)CN1CN/C(=N\[N+](=O)[O-])N(Cc2ccc(Cl)nc2)C1 | ≥ 70 | ≥ 80 | ≥ 60
18 | CCOC(=O)CC(CC(=O)OCC)N1CN/C(=N\[N+](=O)[O-])N(Cc2cnc(Cl)s2)C1 | ≥ 70 | ≥ 90 | ≥ 60
19 | CCOC(=O)CCN1CN/C(=N\[N+](=O)[O-])N(Cc2ccc(Cl)nc2)C1 | ≥ 80 | 100 | ≥ 70
20 | CCOC(=O)[C@H]([C@@H](C)CC)N1CN/C(=N\[N+](=O)[O-])N(Cc2cnc(Cl)s2)C1 | ≥ 60 | ≥ 80 | ≥ 50
21 | CCOC(=O)[C@@H](c1ccc(Cl)cc1)N1CN/C(=N\[N+](=O)[O-])N(Cc2ccc(Cl)nc2)C1 | ≥ 60 | ≥ 70 | ≥ 50
22 | CCOC(=O)[C@@H](c1ccc(Cl)cc1)N1CN/C(=N\[N+](=O)[O-])N(Cc2cnc(Cl)s2)C1 | 100 | 100 | ≥ 90
23 | CCOC(=O)CCCN1CN/C(=N\[N+](=O)[O-])N(Cc2cnc(Cl)s2)C1 | 100 | 100 | ≥ 80
24 | CCOC(=O)[C@H](CC(C)C)N1CN/C(=N\[N+](=O)[O-])N(Cc2cnc(Cl)s2)C1 | 100 | 100 | ≥ 80
25 | CCOC(=O)[C@H](C(C)C)N1CN/C(=N\[N+](=O)[O-])N(Cc2cnc(Cl)s2)C1 | ≥ 60 | ≥ 80 | ≥ 50
26 | O=[N+]([O-])/N=C1\NCCN1Cc1ccc(Cl)nc1 [IMIDACLOPRID] | 100 | 100 | 100

— ChEMBL document CHEMBL3046602, “Chiral 1,5-disubstituted 1,3,5-hexahydrotriazine-2-N-nitroimine analogues as novel potent neonicotinoids: Synthesis, insecticidal evaluation and molecular docking studies” (2011)
